From PubChem BioAssay (NCI)
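1) Cells in 96-well plates. 2) Compound, 48 h, 5 concentrations. 3) Linear interpolation between surrounding doses. 4) Unreached endpoint = highest concentration. Definition used: TGI = concentration required for complete inhibition of growth.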

Legend:
Experiment in all cases: DTP human tumour cell line panel, 48 h
[1] = system: IGROV1 ovarian
[2] = system: 786-0 renal
[3] = system: HOP-92 NSCLC
[4] = system: NCI-H226 lung
[5] = system: MDA-MB-231 breast
[6] = system: BT-549 breast
[7] = system: COLO 205 colon
[8] = system: SK-MEL-28 melanoma
[9] = system: SNB-19 CNS
[10] = system: SR leukemia
[11] = system: SN12C renal
[12] = system: SF-539 CNS

COc1ccc(Nc2[nH]c(C(C)=O)c(N)c2C(=S)Nc2ccccc2)cc1 showed a TGI [1] greater than 100 µM, a TGI [2] greater than 100 µM and a TGI [3] greater than 100 µM. For the same molecule, the TGI [4] was greater than 100 µM, the TGI [5] was greater than 100 µM and the TGI [6] was greater than 100 µM. It also gave a TGI [7] of 48.1 µM, a TGI [8] greater than 100 µM and a TGI [9] greater than 100 µM. It also gave a TGI [10] greater than 100 µM, a TGI [11] greater than 100 µM and a TGI [12] greater than 100 µM.
For CCOC(=O)c1cc(=C2\CCN(CC(C)CC)C2=S)/c(=C(/O)CC)[nH]1 (stereo not drawn), the TGI [1] was 37.1 µM, the TGI [2] was 30.5 µM and the TGI [3] was 39.6 µM. It also gave a TGI [4] of 45.3 µM, a TGI [5] of 31.8 µM and a TGI [6] of 35.4 µM. For the same molecule, the TGI [7] was 24.1 µM, the TGI [8] was 34.8 µM and the TGI [9] was 34.7 µM. For the same molecule, the TGI [10] was 26.3 µM, the TGI [11] was 39.2 µM and the TGI [12] was 24.9 µM.
Work on CC(C)=CCN1CC(C)C(=O)Nc2cc(Cl)ccc21 (stereo not drawn) yielded a TGI [1] of 81.9 µM, a TGI [2] of 39.2 µM and a TGI [3] of 29 µM. It also gave a TGI [4] of 40.6 µM, a TGI [5] of 50.2 µM and a TGI [6] of 51.6 µM. The TGI [7] was 41.9 µM, the TGI [8] was greater than 100 µM and the TGI [9] was greater than 100 µM. It also gave a TGI [10] greater than 100 µM, a TGI [11] of 33 µM and a TGI [12] of 43 µM.
Work on C=CC(=O)c1ccc2c(c1)OCCOCCOCCOCCOCCO2 yielded a TGI [1] greater than 100 µM, a TGI [2] of 31.1 µM and a TGI [3] of 33.5 µM. It also gave a TGI [4] greater than 100 µM, a TGI [5] of 36 µM and a TGI [6] of 37.2 µM. The TGI [7] was 33 µM, the TGI [8] was 34 µM and the TGI [9] was greater than 100 µM. For the same molecule, the TGI [10] was greater than 100 µM, the TGI [11] was 52.8 µM and the TGI [12] was 33.2 µM.
Work on Clc1cc(N/N=C(/c2ccccc2)c2ncccn2)ncn1 yielded a TGI [1] of 36.3 µM, a TGI [2] of 79.3 µM and a TGI [3] of 36.6 µM. The TGI [4] was greater than 100 µM, the TGI [5] was 82.1 µM and the TGI [6] was greater than 100 µM. The TGI [7] was 22.8 µM, the TGI [8] was greater than 100 µM and the TGI [9] was greater than 100 µM. It also gave a TGI [10] greater than 100 µM, a TGI [11] greater than 100 µM and a TGI [12] of 54.7 µM.
For O=c1oc2ccccc2c(O)c1C(c1cc(OCc2ccccc2)cc(OCc2ccccc2)c1)c1c(O)c2ccccc2oc1=O, the TGI [1] was 51.2 µM, the TGI [2] was 31.7 µM and the TGI [3] was greater than 28.3 µM. It also gave a TGI [4] greater than 45.3 µM, a TGI [5] of 34.5 µM and a TGI [6] of 20.9 µM. For the same molecule, the TGI [7] was 33.8 µM, the TGI [8] was 51.8 µM and the TGI [9] was 17.9 µM. The TGI [10] was 15 µM, the TGI [11] was 21.3 µM and the TGI [12] was 36.7 µM.
With Cc1ccc(-c2cc(N)n(-c3nc4c([nH]3)c(=O)n(C)c(=O)n4C)n2)cc1 the TGI [1] was 18.3 µM, the TGI [2] was 13.6 µM and the TGI [3] was 32.2 µM. It also gave a TGI [4] of 22.8 µM, a TGI [5] of 27.8 µM and a TGI [6] of 32.9 µM. For the same molecule, the TGI [7] was 21.8 µM, the TGI [8] was 94.8 µM and the TGI [9] was greater than 100 µM. The TGI [10] was greater than 100 µM, the TGI [11] was 27.2 µM and the TGI [12] was 16 µM.
N#CC1=C(N)OC2=C(CSc3ccccc32)C1c1ccc(Br)cc1 (stereo not drawn) gave a TGI [1] of 25.8 µM, a TGI [2] of 22.8 µM and a TGI [3] of 21.5 µM. For the same molecule, the TGI [4] was 27.9 µM, the TGI [5] was 29.3 µM and the TGI [6] was 28.4 µM. For the same molecule, the TGI [7] was 10.8 µM, the TGI [8] was 28 µM and the TGI [9] was 51.9 µM. For the same molecule, the TGI [10] was 10.3 µM, the TGI [11] was 20.4 µM and the TGI [12] was 13.7 µM.
Work on Cc1cccc(N2C(=O)C3ON(C(C(N)=O)c4ccccc4)C(c4c5ccccc5c(Cl)c5ccccc45)C3C2=O)c1C (stereo not drawn) yielded a TGI [1] of 32.4 µM, a TGI [2] of 20.5 µM and a TGI [3] of 22.6 µM. It also gave a TGI [4] of 14.9 µM, a TGI [5] of 18.1 µM and a TGI [6] of 22.6 µM. For the same molecule, the TGI [7] was 16.7 µM, the TGI [8] was 41.7 µM and the TGI [9] was 18.4 µM. The TGI [10] was 5.53 µM, the TGI [11] was 15.6 µM and the TGI [12] was 16.8 µM.
